Counter-ions that a name gives are not always drawn.
Target: serotonin reuptake (Rattus norvegicus, UniProt P31652)
Test: in vitro serotonin reuptake inhibition assay (Paracelsian)
Assay type: biochemical
Description: The bioassay was performed in quadruplicate by Paracelsian, Inc., Ithaca, N.Y. and were all in compliance with our standard operating protocols, having a standard deviation less than ±5%.

Chain of serotonin reuptake (P31652 whole entry): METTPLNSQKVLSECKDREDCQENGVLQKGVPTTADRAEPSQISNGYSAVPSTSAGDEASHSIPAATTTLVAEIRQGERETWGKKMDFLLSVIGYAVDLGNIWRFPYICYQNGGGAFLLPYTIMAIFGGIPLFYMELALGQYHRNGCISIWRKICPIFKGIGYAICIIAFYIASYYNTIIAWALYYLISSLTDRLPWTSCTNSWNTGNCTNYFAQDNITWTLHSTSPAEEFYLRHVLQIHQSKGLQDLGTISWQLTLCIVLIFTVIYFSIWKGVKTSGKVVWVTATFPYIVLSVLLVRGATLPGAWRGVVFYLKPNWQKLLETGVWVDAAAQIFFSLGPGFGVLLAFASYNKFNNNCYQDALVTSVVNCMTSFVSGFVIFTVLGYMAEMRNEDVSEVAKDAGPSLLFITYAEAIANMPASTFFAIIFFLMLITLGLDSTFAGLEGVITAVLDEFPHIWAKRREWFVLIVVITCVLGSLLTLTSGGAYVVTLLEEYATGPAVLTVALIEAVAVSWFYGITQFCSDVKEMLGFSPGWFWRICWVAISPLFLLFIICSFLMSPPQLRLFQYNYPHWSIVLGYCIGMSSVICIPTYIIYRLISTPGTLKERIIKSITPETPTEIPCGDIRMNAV

| Compound | Serotonin Reuptake Inhibition (%) (sample weight 2 μg) | Serotonin Reuptake Inhibition (%) (sample weight 65 ng) |
| --- | --- | --- |
| Cc1cc(O)c2c(=O)c3c(O)cc(O)c4c5c(O)cc(O)c6c(=O)c7c(O)cc(C)c8c1c2c(c34)c(c78)c65 [Hypericin (Sigma), hypericin] | 0.0% |  |
| CN(C)CCCN1c2ccccc2CCc2ccccc21 [Imipramine (Sigma), imipramine hydrochloride] |  | 38.3% |
| hyperforin [Hyperforin (Aphios)] | 80.3% |  |
